{"source": "patent US20020115661A1", "about": "“Method for treating chronic obstructive pulmonary disease” (priority 2000, published 2002)", "key": {"[1]": {"test": "Plasma CI-1034 concentrations in anesthetized dogs", "assay_type": "in vivo", "conditions": "intravenous, dog; for concentration at 15 min: 15 minutes postdose; for concentration at 30 min: 30 minutes postdose; for concentration at 60 min: 60 minutes postdose"}, "[2]": {"system": "rat, dog, monkey, and human hepatocyte preparations", "test": "Incubations with hepatocyte preparations", "assay_type": "in vitro ADME", "conditions": "monkey, and human hepatocytes"}, "[3]": {"biological_target": "T1, human ETB receptors (Homo sapiens, UniProt P24530)", "T1 construct": "expressed in transfected cells; host or cells: CHO cells", "T1 sequence (P24530 27-442)": "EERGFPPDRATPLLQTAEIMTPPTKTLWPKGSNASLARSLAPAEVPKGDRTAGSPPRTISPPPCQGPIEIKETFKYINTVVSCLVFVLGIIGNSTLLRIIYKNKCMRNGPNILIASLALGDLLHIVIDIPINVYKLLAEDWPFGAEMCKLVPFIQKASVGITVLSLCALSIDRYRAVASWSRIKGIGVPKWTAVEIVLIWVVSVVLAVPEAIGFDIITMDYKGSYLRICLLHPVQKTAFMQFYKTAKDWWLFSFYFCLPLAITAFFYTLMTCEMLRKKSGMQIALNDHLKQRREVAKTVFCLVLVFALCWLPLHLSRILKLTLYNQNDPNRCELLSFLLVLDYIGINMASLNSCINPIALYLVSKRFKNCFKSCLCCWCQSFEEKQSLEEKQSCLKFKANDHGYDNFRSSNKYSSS", "test": "[125I]ET-3 binding to recombinant human ETB receptors (CHO cell membranes)", "conditions": "[125I]ET-3; CHO cell membranes with cloned human ETB receptors; read-out: ETB, IC50"}, "[4]": {"test": "Plasma CI-1034 concentrations in anesthetized dogs", "assay_type": "in vivo, dog", "conditions": "for concentration at 5 min: plasma, intravenous", "procedure": "(§1) Each animal received each treatment and served as its own control, with 7 days between treatments. […] Pulmonary function parameters were evaluated for 60 minutes after each dose, and included minute volume, respiratory rate, resistance, compliance, peak inspiratory and expiratory volumes, and tidal volume. Indirect blood pressure measurements were made periodically throughout the pulmonary data collection period since endothelin receptor antagonists are known to induce hypotension.\n(§2) Plasma concentration in this dog 5 minutes postdose was 1960 μg/mL."}, "[5]": {"test": "PO bioavailability in monkeys", "conditions": "monkey, in vivo"}, "[6]": {"biological_target": "T2, dog ETB receptors (Canis lupus familiaris, UniProt P56497)", "T2 construct": "from tissue", "T2 sequence (P56497 27-442)": "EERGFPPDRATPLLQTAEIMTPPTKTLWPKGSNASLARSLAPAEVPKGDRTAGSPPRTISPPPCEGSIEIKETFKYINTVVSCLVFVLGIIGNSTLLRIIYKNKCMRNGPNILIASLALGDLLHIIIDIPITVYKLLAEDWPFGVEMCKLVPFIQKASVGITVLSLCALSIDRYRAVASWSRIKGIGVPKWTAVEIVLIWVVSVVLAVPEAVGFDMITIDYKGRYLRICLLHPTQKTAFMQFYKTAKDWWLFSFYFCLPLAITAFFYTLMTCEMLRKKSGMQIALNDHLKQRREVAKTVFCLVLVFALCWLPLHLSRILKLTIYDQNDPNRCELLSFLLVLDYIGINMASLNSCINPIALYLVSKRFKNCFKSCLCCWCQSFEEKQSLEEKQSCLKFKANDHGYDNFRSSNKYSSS", "test": "[125I]ET-3 binding, membranes from dog cerebellum", "source_text": "(§3) Relative binding activities are given below in TABLE 3."}, "[7]": {"biological_target": "T3, dog ETA receptors (Canis lupus familiaris, UniProt Q5KSU9)", "T3 construct": "from tissue", "T3 sequence (Q5KSU9 21-426)": "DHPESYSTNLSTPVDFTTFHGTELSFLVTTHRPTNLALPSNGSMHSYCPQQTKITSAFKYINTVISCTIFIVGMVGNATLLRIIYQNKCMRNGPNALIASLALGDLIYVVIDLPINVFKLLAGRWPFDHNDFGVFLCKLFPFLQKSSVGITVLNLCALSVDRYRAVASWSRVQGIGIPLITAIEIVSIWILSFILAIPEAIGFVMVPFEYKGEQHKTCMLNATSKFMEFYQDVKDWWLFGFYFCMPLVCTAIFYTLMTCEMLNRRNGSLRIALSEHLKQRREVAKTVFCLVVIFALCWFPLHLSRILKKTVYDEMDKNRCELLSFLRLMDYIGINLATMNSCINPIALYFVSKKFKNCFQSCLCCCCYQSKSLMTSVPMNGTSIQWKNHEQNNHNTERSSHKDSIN", "test": "[125I]ET-1 binding, membranes from dog cardiac ventricle", "source_text": "as §3"}, "[8]": {"biological_target": "T4, human ETA receptors (Homo sapiens, UniProt P25101)", "T4 construct": "expressed in transfected cells; host or cells: Ltk- cells (mouse fibroblast, thymidine kinase deficient)", "T4 sequence (P25101 21-427)": "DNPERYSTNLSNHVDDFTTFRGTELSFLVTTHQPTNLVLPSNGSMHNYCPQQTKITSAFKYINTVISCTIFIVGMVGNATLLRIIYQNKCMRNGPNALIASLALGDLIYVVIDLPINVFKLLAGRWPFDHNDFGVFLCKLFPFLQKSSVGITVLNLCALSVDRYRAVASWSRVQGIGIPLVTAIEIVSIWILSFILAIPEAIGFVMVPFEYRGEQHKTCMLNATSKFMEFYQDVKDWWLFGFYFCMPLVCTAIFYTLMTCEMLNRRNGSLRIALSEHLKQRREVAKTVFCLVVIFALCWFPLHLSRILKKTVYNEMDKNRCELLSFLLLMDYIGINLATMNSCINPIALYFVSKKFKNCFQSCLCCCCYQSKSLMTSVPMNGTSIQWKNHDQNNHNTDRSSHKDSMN", "test": "Saturation binding of [125I]ET-1, Scatchard analysis (Ltk- cell membranes)"}, "[9]": {"system": "acute hypoxia-induced pulmonary hypertension", "test": "Pulmonary hypertension in response to acute hypoxia in rats", "assay_type": "in vivo, rat", "procedure": "Exposure to hypoxia produces an acute pulmonary hypertensive response in the rat. […] The hypothesis has since been tested through blockade of the hypertensive response with several ET antagonists. The antihypertensive dose of CI-1034 was determined in response to acute hypoxia.\nHeparinized plasma samples were collected 10 minutes after the final MPAP measurement was made."}, "[10]": {"system": "anesthetized dogs", "test": "Pulmonary function in anesthetized dogs", "assay_type": "in vivo, dog", "procedure": "as §1, §2"}, "[11]": {"conditions": "anesthetized dogs, 30 or 60 mg/kg"}}, "data": [{"smiles": "CCc1cc(C2=C(C(=O)[O-])N(c3ccccc3C(F)(F)F)S(=O)(=O)c3ccccc32)cc2c1OCO2.[K+]", "note": "[CI-1034, 4-(7-Ethyl-1,3-benzodioxol-5-yl)-2-[2-(trifluoromethyl)phenyl]-2H-1 ,2-benzothiazine-3-carboxylic acid 1,1-dioxide monopotassium salt]", "values": [{"measurement": "concentration at 15 min", "setting": "[1]; 30 mg/kg", "value": 221, "unit": "µg/mL"}, {"measurement": "concentration at 30 min", "setting": "[1]; 30 mg/kg", "value": 209, "unit": "µg/mL"}, {"measurement": "concentration at 60 min", "setting": "[1]; 30 mg/kg", "value": 157, "unit": "µg/mL"}, {"measurement": "concentration at 5 min", "setting": "[1]; 40 mg/kg, 5 minutes postdose, N = 1", "value": 395, "unit": "µg/mL"}, {"measurement": "concentration at 15 min", "setting": "[1]; 40 mg/kg, N = 1", "value": 327, "unit": "µg/mL"}, {"measurement": "concentration at 30 min", "setting": "[1]; 40 mg/kg, N = 1", "value": 267, "unit": "µg/mL"}, {"measurement": "concentration at 60 min", "setting": "[1]; 40 mg/kg, N = 1", "value": 230, "unit": "µg/mL"}, {"measurement": "concentration at 15 min", "setting": "[1]; 60 mg/kg", "value": 427, "unit": "µg/mL"}, {"measurement": "concentration at 30 min", "setting": "[1]; 60 mg/kg", "value": 367, "unit": "µg/mL"}, {"measurement": "concentration at 60 min", "setting": "[1]; 60 mg/kg", "value": 337, "unit": "µg/mL"}, {"measurement": "metabolic profiles across species", "setting": "[2]", "value": "qualitatively similar metabolic profiles"}, {"measurement": "IC50", "setting": "[3]", "value": 1600, "unit": "nM"}, {"measurement": "plasma concentration versus dose", "setting": "[4]; anesthetized dogs", "value": "increased proportionally with dose"}, {"measurement": "Plasma Concentration", "setting": "[4]; dog, 180 mg/kg, 5 minutes postdose, N = 1", "value": 1960, "unit": "µg/mL"}, {"measurement": "exposure relative to projected human therapeutic Cmax of […]", "setting": "[4]; dogs, 30 and 60 mg/kg, plasma 5 minutes postdose", "value": "at least 940 times"}, {"measurement": "concentration at 5 min", "setting": "[4]; dog, 30 mg/kg, 5 minutes postdose", "value": 301, "unit": "µg/mL"}, {"measurement": "concentration at 5 min", "setting": "[4]; dog, 60 mg/kg, 5 minutes postdose", "value": 574, "unit": "µg/mL"}, {"measurement": "bioavailability", "setting": "[5]", "value": "~10", "unit": "%"}, {"measurement": "IC50", "setting": "[6]", "value": 329, "unit": "nM"}, {"measurement": "IC50", "setting": "[7]", "value": 2, "unit": "nM"}, {"measurement": "Ki", "setting": "[8]; Scatchard analysis, read-out: Ki (inhibitor constant of unlabeled antagonist)", "value": 0.51, "unit": "nM"}, {"measurement": "effect on Bmax (maximal [125I]ET-1 binding)", "setting": "[8]; saturation binding", "value": "without significantly affecting"}, {"measurement": "effect on apparent Kd of [125I]ET-1 binding", "setting": "[8]; saturation binding", "value": "reduced"}, {"measurement": "ED50", "setting": "[9]; Rattus norvegicus, rats, PO, relative to hypoxic control, read-out: ED50, inhibition of acute pulmonary hypertensive response", "value": 0.8, "unit": "mg/kg"}, {"measurement": "EC50", "setting": "[9]; Rattus norvegicus, simple Emax model, acute hypoxia, read-out: plasma concentration predicted to produce half-maximal effect", "value": "0.03 ± 0.03", "unit": "µg/mL"}, {"measurement": "reduction of peak pulmonary hypertensive response at 4 hours", "setting": "[9]; rats, 0.3 mg/kg PO 30 minutes before hypoxia (10% O2)", "value": "34%±1%"}, {"measurement": "reduction of peak pulmonary hypertensive response at 4 hours", "setting": "[9]; rats, 3.0 mg/kg PO 30 minutes before hypoxia (10% O2)", "value": "70%±3%"}, {"measurement": "predicted maximal antihypertensive effect", "setting": "[9]; simple Emax model, acute hypoxia", "value": "81%±23%"}, {"measurement": "effects on pulmonary function", "setting": "[10]; anesthetized dog, 40 mg/kg intravenous, one animal", "value": "No effects were apparent"}, {"measurement": "pulmonary finding", "setting": "[10]; anesthetized dog, 180 mg/kg intravenous, within 5 minutes postdose, one animal", "value": "Respiratory arrest"}, {"measurement": "effect on blood pressure", "setting": "[10]; [11]", "value": "no significant effect"}, {"measurement": "effect on minute volume, pulmonary resistance, or pulmonary compliance", "setting": "[10]; [11]", "value": "no effect"}, {"measurement": "histopathology, lungs", "setting": "[10]; dog that died after 180 mg/kg", "value": "marked bilateral diffuse congestion"}, {"measurement": "histopathology, coronary arteries", "setting": "[10]; dog that died after 180 mg/kg, mild, primarily right coronary arteries", "value": "Arteriopathy"}, {"measurement": "mortality", "setting": "[10]; dog, 180 mg/kg intravenous, one animal", "value": "found dead on Day 3"}]}]}
